What was measured:
[1] = Inventor's clinical observation of patients with lymphedema / fluid accumulation treated orally; type: in vivo
Source text: The inventor disagrees with the basic assumption and hypothesis on the inner working of guaifenesin. The inventor believes that guaifenesin's activity is its ability to break down undigested protein, and antigen-antibody complexed protein within the tissues and lymphatic nodes and vessels to reduce fluid accumulation and therefore reduce lymphedema. Guaifenesin is an expectorate and it thins out proteinaceous secretions from our lungs by directly and/or indirectly through stimulating macrophages to breaking the proteins into its amino acids components. The inventor believes that guaifenesin break down the proteins within the blood stream, tissues, and the lymphatic system. By maintaining a high level of guaifenesin within the blood stream, the “foreign” proteins within the tissue, antigen-antibody protein complexes within the lymph nodes will be broken down allowing the broken down amino acid particles to diffuse across the tissue into the lymphatic drainage. With this fluid switch from the lymphatic to the systemic circulation diuresis ensues without affecting the potassium metabolism within the kidney. The inventor has also observed lymphedema that occurs in non-fibromyalgia patients that responds well to guaifenesin therapy resulting in reduction of the swelling. […] These observations confirm the hypothesis that guaifenesin works on the “foreign” protein or antigen-antibodies protein complexes within the tissues and lymphatic system. With different size “foreign” protein and antigen-antibody protein complexes, guaifenesin's action on these proteins in various part of the body will proceed with different rate resulting in different rate of swelling reduction in different part of the bodies. Many of these patients, however, are diagnosed by a physician to have a cardiogenic etiology of edema and are typically treated with diuretics of various types. Cardiogenic edema should respond to a diuretic within […]. The inventor has observed patients being on diuretics for as long as a year with no results on the lymphedema. In testing this hypothesis, the inventor has used guaifenesin on over several hundred patients in varying dosages. […] Guaifenesin is also available in sustained-release version. The long-acting version is typically available at 600 mg and is designed to be taken two or three times a day. […] Other combinations of various dosage for ms may be used with various patients to improve results. […] While the inventor has only administered guaifenesin to patients orally, guaifenesin and its analogs can be formulated using known methods to prepare pharmaceutically useful compositions by combining guaifenesin with a pharmaceutically acceptable carriers and adapted to be administered by injection, transdermally, transmucosally or by any other means of drug delivery vehicle. Guafenesin may also be administered to a patient in a patch form or in a cream, ointment, or in a nasal or lung spray, or in a suppository.

[2] = herbal medicines, background statement; cited from earlier work

SMILES | results with combination of short acting and long acting versions ([1]; combination of short acting and long acting versions) | painful and swollen lymph nodes ([1]; fibromyalgia patients on guaifenesin) | results with long-acting (sustained-release) version alone ([1]; long-acting version, typically 600 mg two or three times a day) | response of lymphedema (reduction of the swelling) ([1]; non-fibromyalgia patients, guaifenesin therapy) | accumulated fluid ([1]; over several hundred patients, oral, about 600 mg to about 4000 mg per day) | swelling of lymphedema [2]
COc1ccccc1OCC(O)CO (stereo not drawn) [guaifenesin] | improves the results | reduction of the painful and swollen lymph nodes | may not work well in some patients | responds well | reduction of accumulated fluid | 
O=c1ccc2ccccc2o1 [coumarin] |  |  |  |  |  | decrease some of the swelling associated with lymphedema

From patent US6436448B1, “Method for the treatment of lymphedema using guaifenesin” (Sky BioHealth Solutions, Inc., priority 2001, dated 2002)
